Results published in patent publication US20070129415A1, “Method of Treating Isolated Systolic Hypertension” (priority 1997, published 2007).

Tested on: prejunctional AII receptors and sympathetic outflow
Assay: Spinal cord-stimulated pithed rats: pressor response to stimulation of sympathetic vasomotor outflow
Type: in vivo, Sprague-Dawley rats
Conditions: pithed rat; for inhibition of the pressor responses mediated by sympathetic nervous system activation (spinal cord stimulation): 0.3 mg/kg, i.v. 10 min before second frequency-response curve, 50 V, 1 msec, 0.3-5.0 Hz
Method: Normotensive male Sprague-Dawley rats (300-350 gm) were anesthetized with Brevital (10 mg/kg, i.v.), a tracheostomy was performed and the rats were then pithed by inserting a steel rod (1.5 mm in diameter) through the orbit and foramen magnum into the spinal cord. Immediately after pithing, rats were ventilated artificially with room air using a rodent respirator at a frequency of 60 cycles/min with a volume of 2 ml/100 gm body weight. The pithing rod was insulated except for a 6-cm section distal from the tip. Body temperature was maintained at 37-38° C. by a thermostatic heating pad. Animals were treated with tubocurararine (1 mg/kg, i.v) and atropine (1 mg/kg, i.v.), to prevent muscle movement during spinal cord stimulation and parasympathetic effects, respectively. Systemic arterial blood pressure was measured from the right carotid artery by a Statham P23 pressure transducer and recorded on a Grass polygraph. The left jugular vein was cannulated for i.v. administration of drugs.
Stimulation of sympathetic vasomotor outflow was accomplished by a consecutive train of stimulation (50 V, 1 msec, 0.3-5.0 Hz) which was delivered for 15 sec at each frequency. […] For all the compounds evaluated, this dose provided effective blockade of the pressor response to exogenous AII (100 ng/kg, i.v.). Each rat served as its own control.
AII data are shown as the means±S.E.M. of the number (n) of observations. Statistical significance of the differences between drug-treated animals and vehicle-control animals was tested by a one-way analysis of variance with a P valued of 0.05 accepted as significant.

Molecule	inhibition of the pressor responses mediated by sympathetic nervous system activation (spinal cord stimulation)	also measured
CCCCc1ncc(/C=C(\Cc2cccs2)C(=O)O)n1Cc1ccc(C(=O)O)cc1 [Eprosartan, (E)-α-[2-n-butyl-1-[(4-carboxyphenyl)methyl]-1H-imidazol-5-yl]methylene-2-thiophenepropionic acid monomethanesulfonate]	significant inhibition	
CCCCC1=NC2(CCCC2)C(=O)N1Cc1ccc(-c2ccccc2-c2nnn[nH]2)cc1 [irbesartan]	neither losartan, valsartan, or irbesartan produced significant inhibition	
CCCCc1nc(Cl)c(CO)n1Cc1ccc(-c2ccccc2-c2nn[nH]n2)cc1 [losartan]	neither losartan, valsartan, or irbesartan produced significant inhibition	
CCCCC(=O)N(Cc1ccc(-c2ccccc2-c2nnn[nH]2)cc1)[C@H](C(=O)O)C(C)C [valsartan]	neither losartan, valsartan, or irbesartan produced significant inhibition	
Sar^1-Ile^8[AII]		inhibition of the increase in pressor response to spinal cord stimulation (continuous infusion 10 ug/kg/min): significantly inhibited
angiotensin II (DRVYIHPF; Angiotensin-2; UniProt P01019 25-32, looked up) [AII, angiotensin II (AII), infused at a sub-pressor dose]		shift of the frequency-response curve (pressor response to spinal cord stimulation) (continuous infusion of a sub-pressor dose, 40 ng/kg/min): significant leftward shifts
